Measured values: PubChem BioAssay (NCI)
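Tested at 5 concentrations; 48 h exposure; 96-well plates; endpoints linearly interpolated, else capped at highest concentration. TGI is the concentration that stops growth completely.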

What was measured:
Assay in all cases: growth of human tumour cells (NCI), 48 h
[1] = test system: 786-0 renal
[2] = test system: A498 renal
[3] = test system: A549 NSCLC
[4] = test system: ACHN renal
[5] = test system: BT-549 breast
[6] = test system: CAKI-1 renal
[7] = test system: CCRF-CEM leukemia
[8] = test system: COLO 205 colon
[9] = test system: DU-145 prostate
[10] = test system: EKVX NSCLC
[11] = test system: HCC-2998 colon
[12] = test system: HCT-116 colon
[13] = test system: HCT-15 colon
[14] = test system: HL-60(TB) leukemia
[15] = test system: HOP-62 NSCLC
[16] = test system: HOP-92 NSCLC
[17] = test system: HS 578T breast
[18] = test system: HT29 colon
[19] = test system: IGROV1 ovarian
[20] = test system: K-562 leukemia
[21] = test system: KM12 colon
[22] = test system: LOX IMVI melanoma
[23] = test system: M14 melanoma
[24] = test system: MALME-3M melanoma
[25] = test system: MCF7 breast
[26] = test system: MDA-MB-231 breast
[27] = test system: MDA-MB-435
[28] = test system: MDA-N
[29] = test system: MOLT-4 leukemia
[30] = test system: NCI-H226 lung
[31] = test system: NCI-H23 lung
[32] = test system: NCI-H460 lung
[33] = test system: NCI-H522 lung
[34] = test system: NCI/ADR-RES ovarian
[35] = test system: OVCAR-3 ovarian
[36] = test system: OVCAR-4 ovarian
[37] = test system: OVCAR-8 ovarian
[38] = test system: PC-3 prostate
[39] = test system: RPMI-8226 leukemia
[40] = test system: SF-268 CNS
[41] = test system: SF-295 CNS
[42] = test system: SF-539 CNS
[43] = test system: SK-MEL-2 melanoma
[44] = test system: SK-MEL-28 melanoma
[45] = test system: SK-MEL-5 melanoma
[46] = test system: SK-OV-3 ovarian
[47] = test system: SN12C renal
[48] = test system: SNB-19 CNS
[49] = test system: SR leukemia
[50] = test system: SW-620 colon
[51] = test system: TK-10 renal
[52] = test system: U251 CNS
[53] = test system: UACC-257 melanoma
[54] = test system: UACC-62 melanoma
[55] = test system: UO-31 renal

Measured: TGI

COc1cccc(NC(=O)CC(=O)Nc2cccc(OC)c2)c1
> 100 µM: all assays above
